# Literature values, collected in patent US8133524B1, “Food composition for hemophagous insects” (Tokitae LLC, priority 2010, dated 2012).
# “Also recorded” adds a separate entry of the source.
# Tested on: Aedes aegypti mosquitoes
# Conditions: mosquitoes fed with human red blood cells or blood
structure (smiles),measurement,value
CC[C@H](C)[C@H](N)C(=O)O [isoleucine],effect of isoleucine supplementation on egg production / egg-laying,enhanced egg production rate; also recorded: enhanced egg-laying after blood feeding
